Key:
DENV-2 viral replicon = assay: microbe, parasite or virus in culture; type: cell-based; conditions: DENV replicon cells, EC50 compared
Description: Compounds were evaluated for antiviral properties using BHK cells containing a DENV-2 viral replicon. 1.5 × 10^3 replicon-containing cells per well were plated in white opaque 96-well plates in the absence of antibiotic selection and the next day, compounds dissolved in DMSO were added to triplicate wells in culture medium. The compounds were initially tested at 10 and 50 μM final concentrations and each plate also contained DMSO alone, medium alone, and 6. Three days later, medium was replaced with a 1:1000 dilution of ViVi-Ren Live Cell Substrate (Promega) in DME minus phenol red and 10% FBS. Luminescence was measured with a Molecular Devices M5e plate reader. Mean values of triplicate wells were determined and compared to the mean value for the wells that received DMSO alone. […] The EC50 was determined by comparing luciferase activity for eight serial dilutions of the compound and DMSO treated cells using GraphPad Prism software.

[1] = Cell viability assay (MTS) in DENV replicon cells; type: cell-based, baby hamster; conditions: hamster, DENV replicon cells (BHK pD2-hRucPac-2ATG30), DENV replicon BHK cells, MTS, 72 h
DENV-2 [2] = assay: Titer reduction assay in Huh-7 cells, plaque assay on Vero cells; type: cell-based, DENV-2 New Guinea C strain; conditions: Dengue virus, DENV2, m.o.i. 0.2, 72 h
Description: (§1) Huh-7 cells were seeded in 12-well plates at a density of 4×10^5 cells per well in 1 mL culture medium. The next day, cells were washed and inoculated with DENV at a multiplicity of infection (m.o.i.) of 0.2 in 500μl infection medium (MEM containing 2% FBS and 10 mM HEPES). The inoculum was removed after 1h, cells were washed with PBS and then incubated in 1 mL MEM, 2% FBS, 1% pen/strep plus compound for 72 h. Viral supernatants were clarified by centrifugation for 5 min at 1500×g and aliquoted and stored at -80°C. Viral titers were determined using a plaque assay on Vero cells. Briefly, confluent Vero cell monolayers in 24-well plates were incubated at 37°C for 1 h with duplicate 300 μl samples of 10-fold serial dilutions of viral supernatants. The cells were then washed to remove unbound viral particles and overlaid with 500ul MEM containing 1.3% methylcellulose, 5% FBS and 10mM HEPES. After 5 days of incubation at 37°C and 5% CO2, cells were washed with PBS, fixed, and stained using 1% Giemsa. Infectious virus titer (pfu/mL) was determined using the following formula: number of plaques × dilution factor × (1/inoculation volume). The viral titer was presented as the mean of duplicate samples from a dilution yielding approximately 20–50 plaques per well.

[3] = Cell viability assay (MTS) in Huh-7 cells; type: cell-based; conditions: human
Description: The sensitivity of the cell lines to the compounds was examined using the 3-(4,5-dimethylthiazol-2-yl)-5-(3-carboxymethoxyphenyl)-2-(4-sulfophenyl)-2H-tetrazolium (MTS)-based tetrazolium reduction CellTiter 96 Aqueous Non-Radioactive cell proliferation assay (Promega G5430). The compounds were initially tested at 10 and 50 μM final concentrations. Each plate also contained DMSO alone, medium alone, and an inhibitory compound, 6. DENV replicon or Huh-7 cells were plated at a density of 1,500 or 8 × 10^3 cells, respectively, per well in 96-well plates containing 100 μl of culture medium overnight. Compounds were added to triplicate wells in culture medium and incubated for an additional 72 h. MTS reagent was then added to each well and incubated at 37°C in a humidified 5% CO2 atmosphere. The plates were read at various time points at a wavelength of 490 nm using a Molecular Devices M5e plate reader. Mean values of triplicate wells were determined and compared to the mean value for the wells that received DMSO alone. For compounds selected for dose-response experiments, the CC50 was determined by comparing cell viability for eight serial dilutions of the compound and DMSO treated cells using GraphPad Prism software.

DENV-2 [4] = assay: Virus passage in presence of compound, supernatant titer by plaque assay; type: cell-based, DENV-2 New Guinea C strain; conditions: 3a 200 μM, Huh-7, passages 5 and 6; limit of detection 3.3 pfu/mL
Description: as §1, with “After 5 days of incubation at 37°C and 5% CO2, cells were washed with PBS, fixed, and stained using 1% Giemsa.” left out, “The viral titer was presented as the mean of duplicate samples from a dilution yielding approximately 20–50 plaques per well.” left out
(§2) Virus was passaged on Huh-7 cells supplemented with 200 μM 3a, 500 μM 3b or DMSO (0.5%). […] The virus titer in the harvested supernatant was determined by plating ten-fold serial dilutions onto single wells of a 24-well plate. […] Supernatant titer was determined from a single well where there were approximately 20–50 plaques when possible. […]

DENV-2 [5] = assay: Virus passage in presence of compound, genome copy number by RT-qPCR (NS5); type: cell-based, DENV-2 New Guinea C strain; conditions: 3a 200 μM, Huh-7, passage 6; limit of detection 30 copies
Description: For qPCR determination of viral genome copy number, viral RNA was isolated from 140 μL of drug-treated or DMSO-treated infected culture supernatant using QIAamp Viral RNA mini kit (Qiagen), following manufacturer’s protocol. Viral RNA was quantified using the TaqMan RNA-to-CT 1-Step qPCR Kit (Applied Biosystems). Primers used for qPCR were 5’-[…]-3’ (forward) and 5’-[…]-3’ (reverse) amplifying a region numbering 8928–8988 in the genome (numbering starting from the beginning of genome, accession number KM204118). The qPCR FAM probe sequence is 5’-[…]-3’. Serial 10-fold dilutions of plasmid containing the NS5 gene of DENV were used to generate a standard curve for the quantification of viral RNA genome copy number based on cycle threshold (CT) values. […] Sequences were aligned over a 980-base region that had adequate quality sequencing reads for all clones. Only mutations present in both the forward and reverse reads of a clone were counted. All incidence-based determinants of mutation frequency (Mf min, Mf max, Mfe) were calculated as described.
as §2

DENV-2 [6] = assay: Sequence analysis of prM/E region clones from passaged virus (mutation frequency); type: cell-based, DENV-2 New Guinea C strain
Description: For qPCR determination of viral genome copy number, viral RNA was isolated from 140 μL of drug-treated or DMSO-treated infected culture supernatant using QIAamp Viral RNA mini kit (Qiagen), following manufacturer’s protocol. Viral RNA was quantified using the TaqMan RNA-to-CT 1-Step qPCR Kit (Applied Biosystems). Primers used for qPCR were 5’-[…]-3’ (forward) and 5’-[…]-3’ (reverse) amplifying a region numbering 8928–8988 in the genome (numbering starting from the beginning of genome, accession number KM204118). The qPCR FAM probe sequence is 5’-[…]-3’. Serial 10-fold dilutions of plasmid containing the NS5 gene of DENV were used to generate a standard curve for the quantification of viral RNA genome copy number based on cycle threshold (CT) values. The limit of detection for NS5 plasmid dilutions was 30 copies (S1 Fig). […] Statistical analysis via GraphPad Prism 5 software. To obtain sequence data from viral RNA isolated at each passage, cDNA was generated via M-MLV reverse transcriptase and random hexamers (New England Biolab Inc.) per manufacturer’s instructions. An approximately 1600-base fragment covering membrane protein (prM) and envelop protein gene (E) of DENV-2 viral genome was amplified using PfuUltra II Fusion HS DNA polymerase (Agilent) with primers prMEfor (5'- […]-3') and prMErev (5'- […] -3'). PCR products were purified using Qiaquick PCR purification kit (Qiagen) and then digested with EcoRI and ligated into pcDNA3.1 for sequencing. Sequence for approximately 40–50 individual clones per sample was obtained from the University of Minnesota Genomics Center. Sequences were aligned over a 980-base region that had adequate quality sequencing reads for all clones. Only mutations present in both the forward and reverse reads of a clone were counted. All incidence-based determinants of mutation frequency (Mf min, Mf max, Mfe) were calculated as described.
Virus was passaged on Huh-7 cells supplemented with 200 μM 3a, 500 μM 3b or DMSO (0.5%). Huh-7 cells were seeded in 12-well plates and inoculated with DENV-2 as described for Titer reduction experiments above except an m.o.i. of 0.01 was used. After 3 days of compound treatment, 50 μL of the harvested supernatant was used to inoculate fresh Huh-7 cells in the continued presence of compound. The virus titer in the harvested supernatant was determined by plating ten-fold serial dilutions onto single wells of a 24-well plate. The wells were washed and overlaid as described in the Titer reduction assay above. If no plaques were obtained in any of the harvested supernatant dilutions, the undiluted supernatant was used. If plaques were not detectable, the virus titer was considered to be at the limit of detection, 1 plaque (3.3 pfu/mL). Supernatant titer was determined from a single well where there were approximately 20–50 plaques when possible. This experiment was repeated three times at the compound concentrations listed.

[7] = passage 2, 3a 200 μM, 3b 500 μM, Huh-7
[8] = passage 3, 3a 200 μM, 3b 500 μM, Huh-7

NC(=O)c1nccnc1O [Compound 3a, 3-Hydroxy-2-pyrazinecarboxamide]
times more active than nucleobase 5a (favipiravir) (DENV-2 viral replicon): 5 times | CC50 at 72 h [1]: > 665 µM | EC50 (DENV-2 [2]): 20 ± 11 µM | CC50 at 72 h [3]: > 1000 µM | infectious virus in supernatant (DENV-2 [4]): no infectious virus was detected | genomic RNA in supernatant (DENV-2 [5]): no genomic RNA was detected | number of mutations per clone compared to DMSO (DENV-2 [6]; 3a 200 μM passage 4, 3b 500 μM passage 3, p < 0.0001, Mann-Whitney U): significant difference | Mf max (maximum mutation frequency) (DENV-2 [6]; [7]): 24.6 per 10,000 nucleotides | Mf min (minimum mutation frequency) (DENV-2 [6]; [7]): 5.2 per 10,000 nucleotides | Mfe (entity level mutation frequency) (DENV-2 [6]; [7]): 2.5 ×10^−3 | Number of clones with mutation/total (DENV-2 [6]; [7]): 26/36 | Number of different mutations (DENV-2 [6]; [7]): 17 | Number of haplotypes (DENV-2 [6]; [7]): 17 | Number of total mutations (DENV-2 [6]; [7]): 80 | Transition A→G, number of mutations (DENV-2 [6]; [7]): 3 | Transition C→U, number of mutations (DENV-2 [6]; [7]): 4 | Transition G→A, number of mutations (DENV-2 [6]; [7]): 3 | Transition U→C, number of mutations (DENV-2 [6]; [7]): 1 | Transversion A→U, number of mutations (DENV-2 [6]; [7]): 1 | Transversion G→U, number of mutations (DENV-2 [6]; [7]): 2 | Transversion U→A, number of mutations (DENV-2 [6]; [7]): 2 | Transversion U→G, number of mutations (DENV-2 [6]; [7]): 1 | Mf max (maximum mutation frequency) (DENV-2 [6]; [8]): 5.7 per 10,000 nucleotides | Mf min (minimum mutation frequency) (DENV-2 [6]; [8]): 2.7 per 10,000 nucleotides | Mfe (entity level mutation frequency) (DENV-2 [6]; [8]): 1.4 ×10^−3 | Number of clones with mutation/total (DENV-2 [6]; [8]): 12/37 | Number of different mutations (DENV-2 [6]; [8]): 9 | Number of haplotypes (DENV-2 [6]; [8]): 9 | Number of total mutations (DENV-2 [6]; [8]): 19 | Transition C→U, number of mutations (DENV-2 [6]; [8]): 3 | Transition G→A, number of mutations (DENV-2 [6]; [8]): 3 | Transition U→C, number of mutations (DENV-2 [6]; [8]): 2 | Transversion G→U, number of mutations (DENV-2 [6]; [8]): 1 | Mf max (maximum mutation frequency) (DENV-2 [6]; passage 4, 3a 200 μM, Huh-7): 6.6 per 10,000 nucleotides | Mf min (minimum mutation frequency) (DENV-2 [6]; passage 4, 3a 200 μM, Huh-7): 3.9 per 10,000 nucleotides | Mfe (entity level mutation frequency) (DENV-2 [6]; passage 4, 3a 200 μM, Huh-7): 1.6 ×10^−3 | Number of clones with mutation/total (DENV-2 [6]; passage 4, 3a 200 μM, Huh-7): 19/45 | Number of different mutations (DENV-2 [6]; passage 4, 3a 200 μM, Huh-7): 16 | Number of haplotypes (DENV-2 [6]; passage 4, 3a 200 μM, Huh-7): 15 | Number of total mutations (DENV-2 [6]; passage 4, 3a 200 μM, Huh-7): 27 | Transition A→G, number of mutations (DENV-2 [6]; passage 4, 3a 200 μM, Huh-7): 2 | Transition C→U, number of mutations (DENV-2 [6]; passage 4, 3a 200 μM, Huh-7): 3 | Transition G→A, number of mutations (DENV-2 [6]; passage 4, 3a 200 μM, Huh-7): 3 | Transition U→C, number of mutations (DENV-2 [6]; passage 4, 3a 200 μM, Huh-7): 4 | Transversion C→A, number of mutations (DENV-2 [6]; passage 4, 3a 200 μM, Huh-7): 2 | Transversion U→A, number of mutations (DENV-2 [6]; passage 4, 3a 200 μM, Huh-7): 2

Reference: article PMC5929572, “Nucleobases and corresponding nucleosides display potent antiviral activities against dengue virus possibly through viral lethal mutagenesis” (PLoS Neglected Tropical Diseases, 2018)
